Measured values: patent publication US20080051382A1, “Crystalline Forms of 3-Beta-Amino 17-Methylene Androstane-6-Alpha 7-Beta-Diol Hydrochloride” (INFLAZYME PHARMACEUTICALS LTD., priority 2003, published 2008)
Where a name gives a salt, the structure may show the parent alone.

Tests used:
Assay type in all cases: physicochemical
[1] = Stability of the crystalline form versus relative humidity
[2] = Thermal stability of the crystalline form on heating
[3] = Hygroscopicity of the solid form

**Q.** Which “relative humidity range in which the crystalline form is stable” value ([1]; crystalline powder, hydrochloride) does the source give for `C=C1CCC2C3C(CC[C@]12C)[C@@]1(C)CC[C@H](N)CC1[C@@H](O)[C@@H]3O.Cl` (stereo partly drawn) [form B, 3-beta-amino-17-methylene-androstane-6-alpha,7-beta-diol hydrochloride] here?
**A.** above 50 % RH

**Q.** With `C=C1CCC2C3C(CC[C@]12C)[C@@]1(C)CC[C@H](N)CC1[C@@H](O)[C@@H]3O.Cl` (stereo partly drawn) [form C, 3-beta-amino-17-methylene-androstane-6-alpha,7-beta-diol hydrochloride] as the molecule, how does the “temperature above which the form turns into anhydride D by heating” value ([2]; conversion of mono-hydrate to anhydrous form D) read?
**A.** above 60 °C

**Q.** Which “temperature above which the form decomposes completely” value [2] does the source give for `C=C1CCC2C3C(CC[C@]12C)[C@@]1(C)CC[C@H](N)CC1[C@@H](O)[C@@H]3O.Cl` (stereo partly drawn) [form A, 3-beta-amino-17-methylene-androstane-6-alpha,7-beta-diol hydrochloride] here?
**A.** above 280 °C

**Q.** And the “temperature at which the form begins to deteriorate chemically” value [2]?
**A.** around 240 °C

**Q.** What about the “form conversion under high relative humidity” value ([1]; left for 3 days under a relative humidity above 95%) of the same molecule?
**A.** converts to form B

**Q.** And the hygroscopicity [3]?
**A.** absence of hygroscopicity

**Q.** For `C=C1CC[C@H]2[C@@H]3[C@@H](O)[C@H](O)C4C[C@@H](N)CC[C@]4(C)[C@H]3CC[C@]12C` (stereo partly drawn) [acetate salt, 3-beta-amino-17-methylene-androstane-6-alpha,7-beta-diol, reference compound], which hygroscopicity [3] is on record?
**A.** hygroscopic
